For assay [1], the species on record is Oryctolagus cuniculus. Kind of assay: Binding affinity to alpha-adrenergic receptor in rabbit jejunum. It is filed as tissue-based.
Assay [2] concerns the target Adrenergic receptor alpha. Briefly: Displacement of [3H]clonidine from alpha-adrenergic receptor in rat brain. It is filed as tissue-based. (In general: In a radioligand displacement assay an active substance lowers the binding of a labelled ligand.)

For orientation: Ki means a dissociation constant, usually derived from enzyme kinetics or from competition with a known ligand. The low end stands for higher affinity, the high end for lower affinity.

`Cc1cc(C(C)(C)C)cc(C)c1CC1=NCCN1`: in assay [1], the pD2 came to 7.1.

Turning to `c1ccc2c(c1)CCCC2C1=NCCN1` (stereo not given) [TETRAHYDROZOLINE], the pD2 in assay [1] came to 6.5. In assay [2], this molecule had a Ki of 11 nM.

In assay [1], `c1ccc2c(CC3=NCCN3)cccc2c1` came in with a pD2 of 7.1.

`Cc1cc(C(C)(C)C)c(O)c(C)c1CC1=NCCN1` showed a pD2 in assay [1] of 9.8.

(Values after ChEMBL document CHEMBL3244159, “Ultraviolet photoelectron spectroscopy of cyclic amidines. 1. Electronic structure of some alpha-adrenergic benzylimidazolines” (J Med Chem, 1979).)
